According to ChEMBL document CHEMBL1201862, “PubChem BioAssay data set” (2004):
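In this assay, cells in 96-well plates receive the compound at five concentrations for 48 hours. Endpoints are linearly interpolated between the surrounding concentrations. GI50: concentration for 50% inhibition of growth.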 The source made the active and inactive calls. No stated cut-off is given here; in the data, active = GI50 up to about 1.1 µM and inactive = higher.

How the values were obtained:
Experiment in all cases: NCI anticancer screen, dose series, 48 h
SK-MEL-5 = system: SK-MEL-5
NCI-H226 = system: NCI-H226
EKVX = system: EKVX
786-0 = system: 786-0
RPMI-8226 = system: RPMI-8226
HCT-15 = system: HCT-15
NCI-H522 = system: NCI-H522
SNB-75 = system: SNB-75
SNB-19 = system: SNB-19
OVCAR-3 = system: OVCAR-3
A549 = system: A549
UO-31 = system: UO-31
SK-MEL-2 = system: SK-MEL-2
Malme-3M = system: Malme-3M
A498 = system: A498
NCI-H23 = system: NCI-H23
CAKI-1 = system: CAKI-1
HOP-62 = system: HOP-62
IGROV-1 = system: IGROV-1

| Structure (SMILES) | GI50 (SK-MEL-5) | GI50 (NCI-H226) | GI50 (EKVX) | GI50 (786-0) | GI50 (RPMI-8226) | GI50 (HCT-15) | GI50 (NCI-H522) | GI50 (SNB-75) | GI50 (SNB-19) | GI50 (OVCAR-3) | GI50 (A549) | GI50 (UO-31) | GI50 (SK-MEL-2) | GI50 (Malme-3M) | GI50 (A498) | GI50 (NCI-H23) | GI50 (CAKI-1) | GI50 (HOP-62) | GI50 (IGROV-1) |
| --- | --- | --- | --- | --- | --- | --- | --- | --- | --- | --- | --- | --- | --- | --- | --- | --- | --- | --- | --- |
| COC(=O)c1s/c(=N\C(=S)N(C)C)n(-c2ccc(Cl)cc2)c1C(=O)OC | > 10 µM (inactive) | > 100 µM (inactive) | > 100 µM (inactive) | > 100 µM (inactive) | > 100 µM (inactive) | > 100 µM | 49 µM (inactive) | > 10 µM (inactive) | > 100 µM (inactive) | > 100 µM (inactive) | > 100 µM (inactive) | > 100 µM (inactive) | > 100 µM (inactive) | > 100 µM (inactive) | > 100 µM (inactive) | > 100 µM (inactive) | 59.2 µM (inactive) | 70.3 µM (inactive) | > 10 µM (inactive) |
| CCOC(=O)NC1CC2CCC1(OC)C=C2C (stereo unspecified) | > 100 µM (inactive) | > 100 µM (inactive) | > 100 µM (inactive) | > 100 µM (inactive) | > 100 µM (inactive) | > 100 µM | > 100 µM (inactive) | > 100 µM (inactive) | > 100 µM (inactive) | > 100 µM (inactive) | > 100 µM (inactive) | > 100 µM (inactive) | > 100 µM (inactive) | > 100 µM (inactive) | > 100 µM (inactive) | > 100 µM (inactive) | > 53.5 µM (inactive) | > 100 µM (inactive) | > 100 µM (inactive) |
| COc1cc([C@@H]2c3cc4c(cc3[C@@H](NC(=O)c3ccc(C(C)=O)cc3)C3COC(=O)[C@@H]32)OCO4)cc(OC)c1O (stereo partly specified) | 1.46 µM (inactive) | 0.159 µM (active) | 1.89 µM (inactive) | 0.327 µM (active) | 0.877 µM (active) | 2.46 µM | 1.1 µM (active) | 1.24 µM (inactive) | 0.29 µM (active) | 2.38 µM (inactive) | 0.0311 µM (active) | 4.57 µM (inactive) | 2.82 µM (inactive) | 0.254 µM (active) | 1.66 µM (inactive) | 0.264 µM (active) | 1.9 µM (inactive) | 0.151 µM (active) | 1.03 µM (active) |
| CC(=O)OC12c3ccccc3C1CCCC21OCCCO1 (stereo unspecified) |  | > 100 µM (inactive) | > 100 µM (inactive) | > 100 µM (inactive) | > 100 µM (inactive) | > 100 µM | > 100 µM (inactive) | 37.5 µM (inactive) | > 100 µM (inactive) | > 100 µM (inactive) | > 100 µM (inactive) | > 100 µM (inactive) | > 100 µM (inactive) | > 100 µM (inactive) | > 100 µM (inactive) | > 100 µM (inactive) | > 100 µM (inactive) | > 100 µM (inactive) | > 100 µM (inactive) |
| COc1ccc(N2C(=O)[C@@H]3[C@@H]4CC(C)CC[C@@H]4c4c([nH]c5ccccc45)[C@@H]3C2=O)cc1 (stereo partly specified) | 34 µM (inactive) | 7.38 µM (inactive) | 28.9 µM (inactive) | 7.45 µM (inactive) | > 10 µM (inactive) | 15.3 µM | 19.4 µM (inactive) | 2.82 µM (inactive) | 8.24 µM (inactive) | 19.8 µM (inactive) | 17.3 µM (inactive) | 17 µM (inactive) | 8.79 µM (inactive) | 34.4 µM (inactive) | 16.4 µM (inactive) | 15.5 µM (inactive) | 29 µM (inactive) | 12.6 µM (inactive) | 18.8 µM (inactive) |
| CN(C)CCNc1c2ccccc2c2c3c(cccc13)C(=O)N(CCN(C)C)C2=O | 0.697 µM (active) | 1.82 µM (inactive) | 0.332 µM (active) |  | 0.288 µM (active) | 0.0615 µM | 0.123 µM (active) | 0.176 µM (active) | 0.28 µM (active) | 0.112 µM (active) | 0.193 µM (active) | 1.61 µM (inactive) | 0.188 µM (active) | 0.348 µM (active) | 0.641 µM (active) | 0.0904 µM (active) | 0.423 µM (active) | 1.67 µM (inactive) | 0.0968 µM (active) |
| CC1NC(=O)CC(c2ccccc2)N(N=O)C1c1ccccc1 (stereo unspecified) | 28.6 µM (inactive) | 58.5 µM (inactive) | > 70.6 µM (inactive) |  | 26.5 µM (inactive) | 39.5 µM | 22.1 µM (inactive) | 25.4 µM (inactive) | 40 µM (inactive) | 33.2 µM (inactive) | 53.2 µM (inactive) | 50.8 µM (inactive) | 39.5 µM (inactive) | 52.5 µM (inactive) | 8.89 µM (inactive) | 36.2 µM (inactive) | 37.1 µM (inactive) | 28.8 µM (inactive) | 42.1 µM (inactive) |
| N#Cc1ccccc1NC(=O)C(=O)c1c(O)c2ccccc2oc1=O | > 100 µM (inactive) | > 100 µM (inactive) | > 100 µM (inactive) | > 100 µM (inactive) | > 100 µM (inactive) | > 100 µM | > 100 µM (inactive) | > 100 µM (inactive) | > 100 µM (inactive) | > 100 µM (inactive) | > 100 µM (inactive) | > 100 µM (inactive) | > 100 µM (inactive) | > 100 µM (inactive) | > 100 µM (inactive) | > 100 µM (inactive) | > 100 µM (inactive) | > 100 µM (inactive) | > 100 µM (inactive) |
| O=C(CCN(C(=O)O)S(=O)(=O)c1ccc(NC(=O)c2ccccc2)cc1)NC1CCCCC1 | > 100 µM (inactive) | > 100 µM (inactive) | > 100 µM (inactive) | 12.6 µM (inactive) | 16.5 µM (inactive) | 47.6 µM | > 100 µM (inactive) | > 100 µM (inactive) | > 100 µM (inactive) | > 100 µM (inactive) | > 100 µM (inactive) | > 100 µM (inactive) | > 100 µM (inactive) | > 100 µM (inactive) | > 100 µM (inactive) | > 100 µM (inactive) | > 100 µM (inactive) | > 100 µM (inactive) | > 100 µM (inactive) |
| O=C(CCC(=O)C1CCC/C1=N/O)Nc1ccc(Cl)cc1 (stereo unspecified) | > 100 µM (inactive) | > 100 µM (inactive) | > 100 µM (inactive) | > 100 µM (inactive) | > 100 µM (inactive) | > 100 µM | > 100 µM (inactive) | 74.5 µM (inactive) | > 100 µM (inactive) | > 100 µM (inactive) | > 100 µM (inactive) | > 100 µM (inactive) | > 100 µM (inactive) | > 100 µM (inactive) | > 100 µM (inactive) | > 100 µM (inactive) | > 100 µM (inactive) | > 100 µM (inactive) | > 100 µM (inactive) |
| CC(=O)OCC1OC(n2cc([N+](=O)[O-])c(=O)[nH]c2=O)C(OC(C)=O)C(OC(C)=O)C1OC(C)=O (stereo unspecified) | > 100 µM (inactive) | 42.2 µM (inactive) | > 100 µM (inactive) | > 100 µM (inactive) | > 100 µM (inactive) | > 100 µM | > 100 µM (inactive) | 54.6 µM (inactive) | > 100 µM (inactive) | > 100 µM (inactive) | > 100 µM (inactive) | > 100 µM (inactive) | > 100 µM (inactive) | > 100 µM (inactive) | > 100 µM (inactive) | > 100 µM (inactive) | > 100 µM (inactive) | > 100 µM (inactive) | > 100 µM (inactive) |
